Patent publication US9586947B2, “Imidazoline derivatives, preparation methods thereof, and their applications in medicine” (priority 2012, dated 2017)

Experiments:
LNCaP cells = test: Proliferation inhibition of LNCaP cells (CCK-8); assay type: cell-based; conditions: Homo sapiens, 144 h, cultured 3 + 3 days, CCK-8, OD at 450 nm
Experimental: The following in vitro assay was performed to determine the activity of the compounds of the present invention for inhibiting the proliferation of LNCaP cells.
(1). Cell counting reagent CCK-8 (DOJINDO, CK04)
See experimental procedure from Test Example 1.
After LNCaP cells were cultured for 3 days, the culture medium, test compounds, blank group, and control group were renewed with half of the liquid volume, and were cultured for another 3 days. Then, all 96-well plates were mixed gently with 10 μl of CCK-8 and cultured in an incubator for 2-3 hours under the conditions of 37° C. and 5% CO2. The OD value per well was measured at 450 nm on a Victor3 microplate reader.
(§1) IC50 values were calculated from the data of the inhibition rates of the test compounds at various concentrations.

[1] = test system: PSA secretion of LNCaP cells; test: Inhibitory activity on PSA secretion of LNCaP cells; assay type: cell-based; conditions: Homo sapiens, 96 h; LNCaP cells, 1 nM testosterone medium, 4 days of incubation, PSA kit OD450; read-out: IC50 (inhibition of PSA secretion of LNCaP cells)
Experimental: The following in vitro assay was performed to determine the activity of the compounds of the present invention for inhibiting prostate specific antigen (PSA) secretion of LNCaP cells.
(11). Testosterone culture medium: RIPM 1640 culture medium, 10% CS-FBS, 1% Pen Strep, 1 nM testosterone
LNCaP cells were subcultured in cell culture medium, resuspended in active carbon culture medium, and then inoculated into a 96-well plate (100 μl/well) with an inoculation density of 5×10^4 cells/well.
The test compounds were dissolved in DMSO (dimethyl sulfoxide) and prepared as a 10 mM stock solution. When used, the stock solution was diluted with 5×DMSO and then diluted with a threefold gradient to obtain 8 gradient concentrations. Then, the 8 gradient concentrations were each diluted with 20× testosterone culture medium, in order to ensure DMSO concentration in each culture system was 0.5%. Diluted test compounds remained to be tested.
10 μl of diluted test compounds were added to a 96-well plate and mixed gently. 10 μl of 0.5% DMSO diluted with active carbon culture medium was added to the blank group, and 10 μl of 0.5% DMSO diluted with testosterone culture medium was added to the control group. The 96-well plate was cultured in an incubator under the conditions of 37° C. and 5% CO2.
After 4 days of incubation, 60 μl of cell cultural supernatants were collected, and the OD450 value per well was measured on a NOVO Star microplate reader using PSA kit (Abnova, KA0208).
as §1

Compound: CN1CCC(Oc2ccc(N3C(=S)N(c4ccc(C#N)c(C(F)(F)F)c4)C(=O)C3(C)C)cc2F)CC1 [Example 20, 4-(3-(3-Fluoro-4-((1-methylpiperidin-4-yl)oxy)phenyl)-4,4-dimethyl-5-oxo-2-thioxoimidazolidin-1-yl)-2-(trifluoromethyl)benzonitrile]
- IC50 (LNCaP cells): 156 nM
- IC50 [1]: 57 nM

Compound: CC1(C)C(=O)N(c2ccc(C#N)c(C(F)(F)F)c2)C(=S)N1c1ccc(O[C@@H]2CCOC2)nc1 [Example 21, (R)-4-(4,4-Dimethyl-5-oxo-3-(6-((tetrahydrofuran-3-yl)oxy)pyridin-3-yl)-2-thioxoimidazolidin-1-yl)-2-(trifluoromethyl)benzonitrile]
- IC50 (LNCaP cells): 92 nM
- IC50 [1]: 76 nM

Compound: CC1(C)C(=O)N(c2ccc(C#N)c(C(F)(F)F)c2)C(=S)N1c1ccc(OCCCS(C)(=O)=O)c(F)c1 [Example 22, 4-(3-(3-Fluoro-4-(3-(methylsulfonyl)propoxy)phenyl)-4,4-dimethyl-5-oxo-2-thioxoimidazolidin-1-yl)-2-(trifluoromethyl)benzonitrile]
- IC50 (LNCaP cells): 134 nM
- IC50 [1]: 21 nM

Compound: CC1(C)C(=O)N(c2ccc(C#N)c(C(F)(F)F)c2)C(=S)N1c1ccc(OC2CCS(=O)(=O)CC2)c(F)c1 [Example 23, 4-(3-(4-((1,1-Dioxidotetrahydro-2H-thiopyran-4-yl)oxy)-3-fluorophenyl)-4,4-dimethyl-5-oxo-2-thioxoimidazolidin-1-yl)-2-(trifluoromethyl)benzonitrile]
- IC50 (LNCaP cells): 180 nM
- IC50 [1]: 24 nM

Compound: CC1(C)C(=O)N(c2ccc(C#N)c(C(F)(F)F)c2)C(=S)N1c1ccc(O[C@H]2CCOC2)nc1 [Example 24, (S)-4-(4,4-Dimethyl-5-oxo-3-(6-((tetrahydrofuran-3-yl)oxy)pyridin-3-yl)-2-thioxoimidazolidin-1-yl)-2-(trifluoromethyl)benzonitrile]
- IC50 (LNCaP cells): 92 nM
- IC50 [1]: 32 nM

Compound: CC1(C)C(=O)N(c2ccc(C#N)c(C(F)(F)F)c2)C(=S)N1c1ccc(OCC2CCOC2)nc1 (centres unmarked) [Example 25, 4-(4,4-Dimethyl-5-oxo-3-(6-((tetrahydrofuran-3-yl)methoxy)pyridin-3-yl)-2-thioxoimidazolidin-1-yl)-2-(trifluoromethyl)benzonitrile]
- IC50 (LNCaP cells): 111 nM
- IC50 [1]: 31 nM

Compound: CNC(=O)c1ccccc1Oc1ccc(N2C(=S)N(c3ccc(C#N)c(C(F)(F)F)c3)C(=O)C2(C)C)cc1F [Example 26, 2-(4-(3-(4-Cyano-3-(trifluoromethyl)phenyl)-5,5-dimethyl-4-oxo-2-thioxoimidazolidin-1-yl)-2-fluorophenoxy)-N-methylbenzamide]
- IC50 (LNCaP cells): 201 nM
- IC50 [1]: 44 nM

Compound: CC1(C)C(=O)N(c2ccc(C#N)c(C(F)(F)F)c2)C(=S)N1c1ccc(OC2CCNC2)c(F)c1 (centres unmarked) [Example 28, 4-(3-(3-Fluoro-4-((pyrrolidin-3-yl)oxy)phenyl)-4,4-dimethyl-5-oxo-2-thioxoimidazolidin-1-yl)-2-(trifluoromethyl)benzonitrile]
- IC50 (LNCaP cells): 79 nM
- IC50 [1]: 82 nM

Compound: CN1CCC(Oc2ccc(N3C(=S)N(c4ccc(C#N)c(C(F)(F)F)c4)C(=O)C3(C)C)cc2F)C1 (centres unmarked) [Example 29, 4-(3-(3-Fluoro-4-((1-methylpyrrolidin-3-yl)oxy)phenyl)-4,4-dimethyl-5-oxo-2-thioxoimidazolidin-1-yl)-2-(trifluoromethyl)benzonitrile]
- IC50 (LNCaP cells): 80 nM
- IC50 [1]: 85 nM

Compound: CC1(C)C(=O)N(c2ccc(C#N)c(C(F)(F)F)c2)C(=S)N1c1ccc(OC(F)F)nc1 [Example 30, 4-(3-(6-(Difluoromethoxy)pyridin-3-yl)-4,4-dimethyl-5-oxo-2-thioxoimidazolidin-1-yl)-2-(trifluoromethyl)benzonitrile]
- IC50 (LNCaP cells): 58 nM
- IC50 [1]: 17 nM

Compound: CNC(=O)COc1ccc(N2C(=S)N(c3ccc(C#N)c(C(F)(F)F)c3)C(=O)C2(C)C)cc1F [Example 32, 2-(4-(3-(4-Cyano-3-(trifluoromethyl)phenyl)-5,5-dimethyl-4-oxo-2-thioxoimidazolidin-1-yl)-2-fluorophenoxy)-N-methylacetamide]
- IC50 (LNCaP cells): 134 nM
- IC50 [1]: 110 nM

Compound: CNC(=O)C1(COc2ccc(N3C(=S)N(c4ccc(C#N)c(C(F)(F)F)c4)C(=O)C3(C)C)cc2F)CC1 [Example 34, 1-((4-(3-(4-Cyano-3-(trifluoromethyl)phenyl)-5,5-dimethyl-4-oxo-2-thioxoimidazolidin-1-yl)-2-fluorophenoxy)methyl)-N-methylcyclopropanecarboxamide]
- IC50 (LNCaP cells): 159 nM
- IC50 [1]: 51 nM

Compound: CC1(C)C(=O)N(c2ccc(C#N)c(Cl)c2)C(=S)N1c1ccc(OCC2(N)CC2)c(F)c1 [Example 35, 4-(3-(4-((1-Aminocyclopropyl)methoxy)-3-fluorophenyl)-4,4-dimethyl-5-oxo-2-thioxoimidazolidin-1-yl)-2-chlorobenzonitrile]
- IC50 (LNCaP cells): 277 nM
- IC50 [1]: 57 nM

Compound: CC(=O)N1CCC(Oc2ccc(N3C(=S)N(c4ccc(C#N)c(C(F)(F)F)c4)C(=O)C3(C)C)cc2F)C1 (centres unmarked) [Example 36, 4-(3-(4-((1-Acetylpyrrolidin-3-yl)oxy)-3-fluorophenyl)-4,4-dimethyl-5-oxo-2-thioxoimidazolidin-1-yl)-2-(trifluoromethyl)benzonitrile]
- IC50 (LNCaP cells): 115 nM
- IC50 [1]: 23 nM

Compound: CC1(C)C(=O)N(c2ccc(C#N)c(C(F)(F)F)c2)C(=S)N1c1ccc(OCC2(N)CC2)cc1 [Example 37, 4-(3-(4-((1-Aminocyclopropyl)methoxy)phenyl)-4,4-dimethyl-5-oxo-2-thioxoimidazolidin-1-yl)-2-(trifluoromethyl)benzonitrile]
- IC50 (LNCaP cells): 63 nM
- IC50 [1]: 23 nM

Compound: CC1(C)C(=O)N(c2ccc(C#N)c(C(F)(F)F)c2)C(=S)N1c1ccc(OCC2(C#N)CC2)c(F)c1 [Example 39, 4-(3-(4-((1-Cyanocyclopropyl)methoxy)-3-fluorophenyl)-4,4-dimethyl-5-oxo-2-thioxoimidazolidin-1-yl)-2-(trifluoromethyl)benzonitrile]
- IC50 (LNCaP cells): 256 nM
- IC50 [1]: 27 nM

Compound: CC1(C)C(=O)N(c2ccc(C#N)c(C(F)(F)F)c2)C(=S)N1c1ccc(OC2COC2)cc1 [Example 40, 4-(4,4-Dimethyl-3-(4-((oxetan-3-yl)oxy)phenyl)-5-oxo-2-thioxoimidazolidin-1-yl)-2-(trifluoromethyl)benzonitrile]
- IC50 (LNCaP cells): 196 nM
- IC50 [1]: 29 nM

Compound: CC1(C)C(=O)N(c2ccc(C#N)c(C(F)(F)F)c2)C(=S)N1c1ccc(OC2COC2)c(F)c1 [Example 41, 4-(3-(3-Fluoro-4-((oxetan-3-yl)oxy)phenyl)-4,4-dimethyl-5-oxo-2-thioxoimidazolidin-1-yl)-2-(trifluoromethyl)benzonitrile]
- IC50 (LNCaP cells): 283 nM
- IC50 [1]: 24 nM

Compound: CC1(C)C(=O)N(c2ccc(C#N)c(C(F)(F)F)c2)C(=S)N1c1ccc(OCC(O)CO)cc1 (centres unmarked) [Example 48, 4-(3-(4-(2,3-Dihydroxypropoxy)phenyl)-4,4-dimethyl-5-oxo-2-thioxoimidazolidin-1-yl)-2-(trifluoromethyl)benzonitrile]
- IC50 (LNCaP cells): 281 nM
- IC50 [1]: 37 nM
